One series concerns AhR. The experiment in a line: AhR-regulated (XRE) luciferase reporter gene assay in Hepa-1 cells. Conditions: nanomolar concentrations, 12 h, Hepa-1 cells. Format: cell-based, mouse. The procedure:
Figure 1 10-Cl-BBQ is a potent AhR ligand. A) Structure of 10-Cl-BBQ. […] C) Hepa-1 cells expressing endogenous AhR were transfected with an AhR-regulated luciferase reporter gene (xenobiotic responsive element (XRE)-MMTVpromoter-Luc) and the reporter gene activity was measured after 12 h of treatment with 1 nM TCDD or the indicated concentrations of 10-Cl-BBQ. D) Alteration in proteolytic pattern of AhR by 10-Cl-BBQ. Whole cell lysate (45 µg of protein) from mouse hepatoma Hepa1c1c7 cells was incubated with 100 nM 10-Cl-BBQ or 0.1% DMSO for 1 h at RT and proteolyzed by 1 µg/ml subtilisin for 1, 2, 4, and 8 min at RT. Proteolytic cleavage products of AhR were analyzed by immunoblot. E) Electrophoretic mobility shift assay showing the ligand-stimulated binding of AhR to XRE. Whole cell lysate (18 µg of protein) from mouse hepatoma Hepa1c1c7 cells was incubated with 10 nM 10-Cl-BBQ or 0.1% DMSO for 2 h at room temperature and ^32P-labeled oligonucleotide containing XRE for 20 min at room temperature. The samples were electrophoresed on a native polyacrylamide gel and the signal was visualized by Phosphor Imager. Unlabeled competitor XRE or antibody (Ab) against AhR or Arnt was co-incubated with ^32P-labeled oligonucleotide.
The mean luciferase activity is shown with SEM. […] 3-MC binding to AhR.
On the technique in general: In a reporter assay the amount or activity of a reporter protein is the signal.

The next series has as its system CD4+ T cells. The experiment in a line: Donor CD4+ T cell proliferation in vivo (CFSE dilution) during the GVH response. Set-up: species or system B6D2F1 host mice. Conditions: 10 mg/kg/d i.p. for two days. How it is done:
A. Splenocytes from C57Bl/6 mice were labeled with CFSE and activated in vitro with anti-CD3 and anti-CD28 in the presence of 100 nM 10-Cl-BBQ or DMSO for 72 h. B. C57Bl/6 donor T cells were labeled with CFSE and injected into B6D2F1 host mice to initiate the GVH response. Host mice (n = 5 per group) were treated with vehicle or 10-Cl-BBQ i.p. (10 mg/kg/d) for two days. Donor cells were identified by gating on CD4^+CFSE^+ cells. […] (TIF) Click here for additional data file.

A further series concerns donor CD4+ T cells. The experiment in a line: AhR-Treg phenotype of alloactivated donor CD4+ T cells 48 h after initiating the GVH response. Format: in vivo, B6D2F1 host mice. The procedure: Splenocytes and lymphocytes were harvested from C57Bl/6 mice. In some experiments, T cells were purified by negative selection using a Pan-T kit (Miltenyi Biotec) and stained with 2 µM carboxyfluorescein succinimidyl ester (CFSE) (Life Technologies). At least 2×10^7 purified T cells or approximately 1×10^8 pooled splenocytes and lymphocytes were injected i.v. into B6D2F1 host mice to initiate the GVH response. GVHD pathology was assessed on a scale of 0 to 3 (0 = normal, 1 = moderate morbidity, 2 = severe morbidity, 3 = death) according to the following five criteria: weight-loss, posture, activity, fur texture and death and reported as a Clinical GVHD Score.
Host mice were treated daily with vehicle, 10-Cl-BBQ or BBQ analogues by i.p. injection. The vehicle consisted of a mixture of 6.7% anisole and peanut oil. Mice treated with a single i.p. dose of 15 µg TCDD/kg body weight in the same vehicle were used as positive controls.
Antibodies to CTLA-4, Foxp3, ICOS, CD62L, CD25, CD19, CD44) and a fixable viability dye were purchased from eBiosciences. Additional antibody reagents included CD4 and CD8 (Life Technologies); H-2D^d (Biolegend) and CD45RB (PharMingen). After surface staining, the cells were fixed and permeabilized with Cytofix/cytoperm (BD Biosciences) for intracellular CTLA-4 stain. The flow cytometry data were acquired on an FC500 instrument (Beckman Coulter) and the data were analyzed using WinList 7.0 (Verity Software House). Fluorescence minus one (FMO) controls were used for setting histogram gates during the analysis.
Figure 3 10-Cl-BBQ induces an AhR-dependent Treg phenotype 48 h after initiating the GVH response. On day 0, B6D2F1 host mice in groups of 5 were injected with CFSE-labeled C57Bl/6 T cells and given 15 mg/kg 10-Cl-BBQ, 15 µg/kg TCDD or vehicle by i.p. injection. At 24 h, an additional dose of 7 mg/kg 10-Cl-BBQ or vehicle was given. […] Treatment mean ± SEM is shown in the quadrant of interest. […] C) AhR-dependent induction of the donor Treg phenotype by 10-Cl-BBQ. On day 0, B6D2F1 host mice in groups of 5 were injected with donor T cells obtained from AhR^+/+ or AhR^−/− C57Bl/6 mice. Host mice were treated with 2 mg/kg10-Cl-BBQ or vehicle immediately following donor cell transfer and again at 24 hr. […] D) Dose-dependent induction of Treg phenotype by 10-Cl-BBQ. On day 0, B6D2F1 host mice in groups of 3–5 were injected with C57Bl/6 T cells. Mice were immediately treated with 0, 0.4, 2 or 10 mg/kg 10-Cl-BBQ and again on day 1. On day 2, expression of markers associated with the AhR-Treg phenotype increased as the dose of 10-Cl-BBQ increased. E) In the same mice as in D, lymph nodes were harvested and analyzed for expression of genes that were previously shown to increase under the same GVH conditions with TCDD treatment (13). […] Changes in gene expression were calculated relative to the β-actin gene, and the fold-induction was calculated by the ΔΔCt method using the vehicle-treated samples as a control. * = p<0.05 relative to vehicle treatment. […]

The structures appear in SMILES notation.

As for `O=c1c2cccc3cccc(c32)c2nc3ccc(Cl)cc3n12` [10-Cl-BBQ, 10-chloro-7H-benzimidazo[2,1-a]benzo[de]isoquinolin-7-one], the “activation of the AhR-regulated reporter gene” value in the series with AhR is reported as “activated the AhR-regulated reporter gene”. In addition, the “proliferation of activated T cells in vivo” value in the series on CD4+ T cells is given as “did not inhibit proliferation”. Moreover, the “changes in parameters associated with AhR-Tregs” value in the series with donor CD4+ T cells (0.4 mg/kg/day for two days) was “failed to induce significant changes”. Also, the “induction of the Treg phenotype with AhR-deficient donor T cells” value with donor CD4+ T cells (AhR−/− donor T cells, 2 mg/kg at 0 and 24 hr, day 2) was “failed to induce the Treg phenotype”. Moreover, in the series on donor CD4+ T cells (i.p. for two days after initiation of the GVH response), the “minimum effective dose to induce Tregs” value worked out at 2.0 mg/kg/day.
